Reference: paper PMC6384738, “Structure-Function Studies of Polymyxin B Lipononapeptides” (Molecules, 2019)
Values after ≈ are worked out from the molar mass of the structure shown. Where a SMILES comes first, the peptide text is derived from it. Bridges are numbered along the chain shown (N, C = ends). [ ]: non-standard residue; d: D form. The star is where a group is joined. Hexanoyl(6-Ph) = O=C(CCCCCc1ccccc1)*; dDab = NCC[C@@H](N)C(=O)O; Octanoyl = CCCCCCCC(=O)*; Dab = NCC[C@H](N)C(=O)O

How the values were obtained:
A. baumannii ATCC 19606 = assay: microbe, parasite or virus in culture
How it was run: (§1)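 Growth inhibition is assessed by broth microdilution, with the MIC expressed in mg/L; polymyxin B, colistin, vancomycin and gentamicin act as positive controls.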

E. coli ATCC 25922 = assay: microbe, parasite or virus in culture
How it was run: as §1

K. pneumoniae ATCC 13833 = assay: microbe, parasite or virus in culture
How it was run: as §1

[1] = tested on: K. pneumoniae ATCC 700603; assay: microbe, parasite or virus in culture
How it was run: as §1

K. pneumoniae BAA 2146 = assay: microbe, parasite or virus in culture
How it was run: as §1

P. aeruginosa ATTC 27853 = assay: microbe, parasite or virus in culture
How it was run: as §1

S. aureus ATCC 25923 = assay: microbe, parasite or virus in culture
How it was run: as §1

in vitro = conditions: human
How it was run: (§2)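 HK-2 cells seeded 2000 cells/well in DMEM/F12 with 10% FBS, grown 24 h, then exposed to compounds (300 µM to 2.3 µM, 2-fold series; colistin/polymyxin B 1 mM to 7.8 µM) for 24 h at 37 °C. LDH in medium read at 450 nm after 30 min; cytotoxicity % relative to 1% Triton X-100 and untreated cells.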

[2] = tested on: ATCC reference strains (Escherichia coli, Klebsiella pneumoniae, A. baumannii, and P. aeruginosa)
Description: All compounds synthesised in this study were assessed for their minimum inhibitory concentrations (MIC, mg/L) by broth microdilution assay against five antibiotic-sensitive and resistant ATCC reference strains covering the Gram-negative ESKAPE pathogens (Escherichia coli, Klebsiella pneumoniae, A. baumannii, and P. aeruginosa) (Table 1, Table 2 and Table 3). Staphylococcus aureus was also included as a representative Gram-positive bacterial strain. […] Polymyxin B 1, colistin 2, vancomycin and gentamicin were used as positive inhibitor comparator compounds. Compounds were counter-screened against human proximal tubular epithelial cells (HK-2), using LDH release as a general indicator of cellular toxicity.

[3] = tested on: P. aeruginosa FADDI PA070; assay: microbe, parasite or virus in culture
How it was run: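 Compounds are diluted in broth, the strain is added, and the lowest concentration that inhibits growth is taken as the MIC (mg/L).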

[4] = tested on: human proximal tubular epithelial cells (HK-2); assay: in vitro
How it was run: as §2

[5] = broth microdilution, 18 h, 37 °C
[6] = ESBL strain, broth microdilution, 18 h
[7] = NDM-1 positive strain, broth microdilution, 18 h
[8] = Pmx-resistant clinical isolate, broth microdilution, 18 h
[9] = Gram-positive strain, broth microdilution, 18 h

MIC A. baumannii ATCC 19606 (A. baumannii ATCC 19606; ATCC 19606, 18 h)	MIC E. coli ATCC 25922 (E. coli ATCC 25922; ATCC 25922, 18 h)	MIC K. pneumoniae ATCC 13833 (K. pneumoniae ATCC 13833; ATCC 13833, 18 h)	MIC K. pneumoniae ATCC 700603 ([1]; ATCC 700603, 18 h)	MIC K. pneumoniae BAA 2146 (K. pneumoniae BAA 2146; BAA 2146, 18 h)	MIC P. aeruginosa ATTC 27853 (P. aeruginosa ATTC 27853; ATTC 27853, 18 h)	MIC S. aureus ATCC 25923 (S. aureus ATCC 25923; ATCC 25923, 18 h)	MIC A. baumannii ATCC 19606 (A. baumannii ATCC 19606; broth microdilution, 18 h)	MIC E. coli ATCC 25922 (E. coli ATCC 25922; [5])	MIC K. pneumoniae ATCC 13833 (K. pneumoniae ATCC 13833; broth microdilution, 18 h)	MIC K. pneumoniae ATCC 700603 [1, 6]	MIC K. pneumoniae BAA 2146 (K. pneumoniae BAA 2146; [7])	MIC P. aeruginosa ATTC 27853 (P. aeruginosa ATTC 27853; broth microdilution, 18 h)	MIC P. aeruginosa FADDI PA070 [3, 8]	MIC S. aureus ATCC 25923 (S. aureus ATCC 25923; [9])	Compound	CC50 at 24 h (in vitro)	other results
>32 µg/mL	>32 µg/mL	>32 µg/mL	>32 µg/mL	>32 µg/mL	>32 µg/mL	>32 µg/mL									CCCCCCCC(=O)N[C@H](C(=O)N[C@@H](CCN)C(=O)N[C@@H]1CCNC(=O)[C@H]([C@@H](C)O)NC(=O)[C@H](CCN)NC(=O)[C@H](CCN)NC(=O)[C@H](CC(C)C)NC(=O)[C@@H](Cc2ccccc2)NC(=O)[C@H](CCN)NC1=O)[C@@H](C)O [Compound 19] (Octanoyl-T[Dab][dDab][Dab][dF]L[Dab][Dab]T; lactam 3-C)	> 300 µM	MIC for all strains [2]: > 32 µg/mL
2 µg/mL (≈ 1.76 µM)	0.5 µg/mL (≈ 0.44 µM)	4 µg/mL (≈ 3.52 µM)	1 µg/mL (≈ 0.879 µM)	0.5 µg/mL (≈ 0.44 µM)	2 µg/mL (≈ 1.76 µM)	>32 µg/mL									CC(C)C[C@@H]1NC(=O)[C@@H](Cc2ccccc2)NC(=O)[C@H](CCN)NC(=O)[C@@H](NC(=O)[C@@H](CCN)NC(=O)[C@@H](NC(=O)CCCCCc2ccccc2)[C@@H](C)O)CCNC(=O)[C@H]([C@@H](C)O)NC(=O)[C@H](CCN)NC(=O)[C@H](CCN)NC1=O [Compound 25] ({Hexanoyl(6-Ph)}-T[dDab][Dab][Dab][dF]L[Dab][Dab]T; lactam 3-C)	> 300 µM	MIC P. aeruginosa FADDI PA070 ([3]; FADDI PA070, 18 h): 8 µg/mL (≈ 7.03 µM); MIC against the ATCC strains [2]: 0.5 to 4 µg/mL
							0.25 µg/mL	0.25 µg/mL	0.25 µg/mL	0.25 µg/mL	0.25 µg/mL	0.5 µg/mL	>32 µg/mL	>32 µg/mL	colistin [Col 2, reference compound]		CC50 [4]: > 300 µM
							0.25 µg/mL	1 µg/mL	1 µg/mL	0.5 µg/mL	0.25 µg/mL	0.5 µg/mL	32 µg/mL	>32 µg/mL	polymyxin B [PmxB 1, reference compound]		CC50 ([4]; read-out: CC50 HK-2, LDH release, 24 h incubation): > 300 µM
